In ChEMBL document CHEMBL5120759, “Synthesis, Biological Evaluation, and Molecular Docking Study of 3-Amino and 3-Hydroxy-seco A Derivatives of α-Amyrin and 3-Epilupeol as Inhibitors of COX-2 Activity and NF-kB Activation” (J Nat Prod, 2022):
The source made the active and inactive calls. No cut-off for these calls is given here.

Columns and labels:
RAW264.7 [1] = assay: Cytotoxicity against mouse RAW264.7 cells assessed as reduction in cell viability at 8.8 to 70 uM incubated for 24 hrs by MTS assay; type: toxicity, cell-based; conditions: raw264.7, 24 h, dose 8.8-70 µM
RAW264.7 [2] = assay: Antiinflammatory activity against LPS-stimulated mouse RAW264.7 cells assessed as inhibition of NO production incubated for 2 hrs followed by LPS stimulation for 20 hrs by Griess reagent based assay; type: functional, cell-based
RAW264.7 [3] = assay: Antiinflammatory activity against LPS-stimulated mouse RAW264.7 cells assessed as inhibition of NO production at 8.8 to 70 uM prestimulated with LPS and 2 hrs later incubated with compound by Griess reagent based assay; type: functional, cell-based; conditions: dose 8.8-70 µM
RAW264.7 [4] = assay: Antiinflammatory activity against LPS-stimulated mouse RAW264.7 cells assessed as inhibition of TNF-alpha production at 70 uM incubated for 2 hrs followed by LPS stimulation for 20 hrs by ELISA relative to control; type: functional; conditions: time 22 hrs
RAW264.7 [5] = assay: Antiinflammatory activity against LPS-stimulated mouse RAW264.7 cells assessed as inhibition of IL-6 production at 70 uM incubated for 2 hrs followed by LPS stimulation for 20 hrs by ELISA relative to control; type: functional; conditions: time 22 hrs
RAW-Blue [6] = assay: Inhibition of NF-kappaB activation in LPS-stimulated mouse RAW-Blue cells at 70 uM preincubated for 2 hrs followed by LPS stimulation and measured after 20 hrs by QUANTI-Blue assay; type: cell-based; conditions: time 22.0 hrs
Mus musculus = assay: Anti-inflammatory activity against TPA-induced auricular edema CD-1 mouse model assessed as inhibition of ear edema at 1 mg per ear applied immediately after TPA application and measured after 4 hrs relative to control; type: functional
RAW264.7 [7] = assay: Antiinflammatory activity against LPS-stimulated mouse RAW264.7 cells assessed as inhibition of IL-6 production at 17.5 to 70 uM prestimulated with LPS and 2 hrs later incubated with compound by […] assay; type: functional, cell-based; conditions: dose 17.5-70 µM
RAW264.7 [8] = assay: Antiinflammatory activity against LPS-stimulated mouse RAW264.7 cells assessed as inhibition of TNF-alpha production at 17.5 to 70 uM prestimulated with LPS and 2 hrs later incubated with compound by […] assay; type: functional, cell-based; conditions: dose 17.5-70 µM
[9] = biological target: T1, Prostaglandin G/H synthase 2 (Homo sapiens) (UniProt P35354); assay: Inhibition of human COX-2 at 17.5 uM using arachidonic acid as substrate by colorimetric analysis
T1 sequence (whole entry): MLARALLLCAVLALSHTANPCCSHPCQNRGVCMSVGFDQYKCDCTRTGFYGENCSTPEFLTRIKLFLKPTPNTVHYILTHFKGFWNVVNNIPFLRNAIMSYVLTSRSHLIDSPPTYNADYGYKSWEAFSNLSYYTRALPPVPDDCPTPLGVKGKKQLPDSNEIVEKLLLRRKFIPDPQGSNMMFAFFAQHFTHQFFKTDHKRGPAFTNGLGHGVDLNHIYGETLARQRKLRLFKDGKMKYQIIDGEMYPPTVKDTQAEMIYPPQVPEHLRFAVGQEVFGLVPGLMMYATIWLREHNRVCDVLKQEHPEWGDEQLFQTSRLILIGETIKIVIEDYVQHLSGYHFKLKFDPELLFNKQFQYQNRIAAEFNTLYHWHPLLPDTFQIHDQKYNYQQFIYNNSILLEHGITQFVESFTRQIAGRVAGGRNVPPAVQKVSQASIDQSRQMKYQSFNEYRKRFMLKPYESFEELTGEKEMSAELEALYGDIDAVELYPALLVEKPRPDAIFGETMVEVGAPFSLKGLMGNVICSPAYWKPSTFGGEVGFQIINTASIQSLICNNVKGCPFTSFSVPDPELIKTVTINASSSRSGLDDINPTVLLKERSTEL

[10] = biological target: T2, COX-1 (Prostaglandin G/H synthase 1) (Ovis aries, UniProt P05979); assay: Inhibition of ovine COX-1 at 17.5 uM using arachidonic acid as substrate by colorimetric analysis; type: single protein; conditions: sheep, ovine COX-1 enzyme, probe arachidonic acid
T2 sequence (P05979 whole entry): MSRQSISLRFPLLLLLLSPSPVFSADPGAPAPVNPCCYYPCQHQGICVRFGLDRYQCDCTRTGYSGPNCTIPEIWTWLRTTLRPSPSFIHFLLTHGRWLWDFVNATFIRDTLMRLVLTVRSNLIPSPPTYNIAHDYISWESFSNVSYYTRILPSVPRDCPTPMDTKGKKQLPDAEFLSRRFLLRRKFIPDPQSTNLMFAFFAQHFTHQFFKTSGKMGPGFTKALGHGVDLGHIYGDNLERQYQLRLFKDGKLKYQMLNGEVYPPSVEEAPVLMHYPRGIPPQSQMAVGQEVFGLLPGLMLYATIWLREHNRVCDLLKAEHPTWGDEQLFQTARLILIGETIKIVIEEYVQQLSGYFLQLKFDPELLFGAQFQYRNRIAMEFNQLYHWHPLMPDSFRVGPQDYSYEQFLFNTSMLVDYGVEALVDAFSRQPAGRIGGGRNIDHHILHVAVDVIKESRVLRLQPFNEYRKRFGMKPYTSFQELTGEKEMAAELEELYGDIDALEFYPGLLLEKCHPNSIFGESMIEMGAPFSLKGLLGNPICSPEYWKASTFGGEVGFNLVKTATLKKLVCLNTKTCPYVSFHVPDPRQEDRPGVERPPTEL

[11] = Cytotoxicity against mouse RAW264.7 cells assessed as cell viability at 70 uM incubated for 24 hrs by MTS assay relative to control; type: toxicity, cell-based; conditions: read-out: Activity
RAW264.7 [12] = assay: Antiinflammatory activity against LPS-stimulated mouse RAW264.7 cells assessed as inhibition of TNF-alpha production at 35 uM incubated for 2 hrs followed by LPS stimulation for 20 hrs by ELISA relative to control; type: functional; conditions: time 22 hrs
RAW264.7 [13] = assay: Antiinflammatory activity against LPS-stimulated mouse RAW264.7 cells assessed as inhibition of IL-6 production incubated for 2 hrs followed by LPS stimulation for 20 hrs by ELISA; type: functional, cell-based
RAW-Blue [14] = assay: Inhibition of NF-kappaB activation in LPS-stimulated mouse RAW-Blue cells at 35 uM preincubated for 2 hrs followed by LPS stimulation and measured after 20 hrs by QUANTI-Blue assay; type: cell-based; conditions: time 22.0 hrs
RAW264.7 [15] = assay: Antiinflammatory activity against LPS-stimulated mouse RAW264.7 cells assessed as inhibition of NO production at 4.4 to 35 uM prestimulated with LPS and 2 hrs later incubated with compound by Griess reagent based assay; type: functional, cell-based; conditions: dose 4.4-35 µM
RAW264.7 [16] = assay: Antiinflammatory activity against LPS-stimulated mouse RAW264.7 cells assessed as inhibition of IL-6 production at 8.8 to 35 uM prestimulated with LPS and 2 hrs later incubated with compound by […] assay; type: functional, cell-based; conditions: dose 8.8-35 µM
RAW264.7 [17] = assay: Antiinflammatory activity against LPS-stimulated mouse RAW264.7 cells assessed as inhibition of TNF-alpha production at 8.8 to 35 uM prestimulated with LPS and 2 hrs later incubated with compound by […] assay; type: functional, cell-based; conditions: dose 8.8-35 µM

| SMILES | Activity (RAW264.7 [1]) | IC50 (RAW264.7 [2]) [µM] | Activity (RAW264.7 [3]) | inhibition at 70 µM (RAW264.7 [4]) [%] | inhibition at 70 µM (RAW264.7 [5]) [%] | inhibition (RAW-Blue [6]) [%] | inhibition (INH) (Mus musculus) [%] | Activity (RAW264.7 [7]) | Activity (RAW264.7 [8]) | inhibition [9] [%] | inhibition at 17.5 µM [10] [%] | viability at 24 h, 70 µM [11] [%] | inhibition at 35 µM (RAW264.7 [12]) [%] | IC50 (RAW264.7 [13]) [µM] | inhibition (RAW-Blue [14]) [%] | Activity (RAW264.7 [15]) | Activity (RAW264.7 [16]) | Activity (RAW264.7 [17]) |
| --- | --- | --- | --- | --- | --- | --- | --- | --- | --- | --- | --- | --- | --- | --- | --- | --- | --- | --- |
| C=C(C)[C@@H]1CC[C@]2(C)[C@H](CC=C3[C@@H]4[C@@H](C)[C@H](C)CC[C@]4(C)CC[C@]32C)[C@@]1(C)CCCO | Non-Toxic | 58.9 | Active | 68.5 | 40.2 | 22 | 9.5 | Active | Active | 66.3 |  |  |  |  |  |  |  |  |
| C=C(C)[C@@H]1CC[C@]2(C)CC[C@]3(C)[C@H](CC[C@@H]4[C@@](C)(CCCN5CCOCC5)[C@H](C(=C)C)CC[C@]43C)[C@@H]12 | Non-Toxic |  |  |  |  |  | 11.1 |  |  | 49.2 |  |  |  |  |  |  |  |  |
| C=C(C)[C@@H]1CC[C@]2(C)[C@H](CC=C3[C@@H]4[C@@H](C)[C@H](C)CC[C@]4(C)CC[C@]32C)[C@@]1(C)CCCN1C[C@H](O)C[C@H]1C(=O)OC | Non-Toxic | 42.9 | Active | 70 | 89.1 | 96.2 | 25.2 | Active | Active | 61.8 | 37.3 |  |  |  |  |  |  |  |
| C=C(C)[C@@H]1CC[C@]2(C)CC[C@]3(C)[C@H](CC[C@@H]4[C@@](C)(CCCN5C[C@H](O)C[C@H]5C(=O)OC)[C@H](C(=C)C)CC[C@]43C)[C@@H]12 |  | 23.2 | Active |  |  |  | 36.4 |  |  |  | 7.2 | 64.2 | 55.7 | 11.1 | 87.4 | Active | Active | Active |
| C=C(C)[C@@H]1CC[C@]2(C)[C@H](CC=C3[C@@H]4[C@@H](C)[C@H](C)CC[C@]4(C)CC[C@]32C)[C@@]1(C)CCCNCC(=O)OC | Non-Toxic |  |  |  |  |  | 40.1 |  |  | 61.8 | 33.3 |  |  |  |  |  |  |  |
